# Entries after “also recorded” stand apart in the source; their conditions may differ.
# B1: myelin basic protein (protein, UniProt P02687 1-169, looked up)
# Myelin basic protein: AAQKRPSQRSKYLASASTMDHARHGFLPRHRDTGILDSLGRFFGSDRGAPKRGSGKDGHHAARTTHYGSLPQKAQGHRPQDENPVVHFFKNIVTPRTPPPSQGKGRGLSLSRFSWGAEGQKPGFGYGGRASDYKSAHKGLKGHDAQGTLSKIFKLGGRDSRSGSPMARR
# notes: myelin basic protein (obtained from Pel Freez) fed as a control protein
# How the values were obtained:
# Assay type in all cases: in vivo
# [1] = system: NOD mice suffering from hyperglycemia; assay: Treatment of initial stages of diabetes in NOD mice (Example 5); details: oral and aerosol administration to hyperglycemic NOD mice; expected
# Procedure: Insulin (0 to 1 mg as in Examples 1 and 2) will be administered to NOD mice which are suffering from hyperglycemia in an oral and aerosol form. The treatments will begin by weeks 12-20 of age, by which the serum glucose levels are at hyperglycemic concentrations in a certain percentage of animals prior to onset of diabetes.
# [2] = system: insulitis in NOD mice; assay: Preliminary experiments on insulitis in insulin-fed NOD mice; details: NOD mice fed 1 mg of insulin vs PBS-fed, data not shown
# Excerpt: Therefore, oral administration of insulin to NOD mice appeared to be affecting the infiltration of immune system cells into the pancreas and thus halting disease progression by preserving beta cell function.
# [3] = system: diabetes in NOD mice; assay: Effect of aerosol administration of insulin on diabetes in NOD mice (Example 4); details: insulin 0 to 1 mg in aerosol form by nebulizer; expected
# Procedure: Insulin (0 to 1 mg as in Examples 1 and 2) will be administered to NOD mice as described above in Examples 1 and 2 except in aerosol form by nebulizer.
# [4] = system: blood glucose in fasting NOD mice; assay: Glucose post oral insulin in fasting 7 week NOD mice (Example 2); details: for blood glucose after feeding: 1 mg fed orally, fasting 7 week old NOD mice
# Procedure: In order to determine whether any endocrinologic (i.e. direct lowering of blood sugar) effects occurred following the feeding of insulin, 7 week old NOD mice (5 mice per group) were fed 1 mg of porcine insulin or 1 mg of myelin basic protein (obtained from Pel Freez, Rogers, Ark.) as a control protein. Blood glucose was then measured over the next 24 hour period. As a positive control, a separate group of animals were injected subcutaneously with 20 micrograms of Porcine insulin. All animals were kept in the fasting state.
# [5] = system: spontaneous diabetes in NOD mice; assay: Effect of feeding porcine insulin on spontaneous diabetes in NOD mice (Example 1)
# Excerpt: NOD (non-obese diabetic mice) were obtained from Taconic Laboratories (Germantown, Mass.) at 4 weeks of age. There were a total of 30 animals in each of the groups mentioned below at the beginning of the experiment. At 4½ weeks of age, animals were orally administered Porcine insulin (Novo Laboratories, Danbury, Conn.). Each animal received two treatments orally twice a week until 9 weeks of age. The mice were fed either saline (control) or 10 micrograms, 100 micrograms, or 1 milligram of Porcine insulin. The animals were fed (gavaged) with an 18 gauge ball-point needle (Popper and Sons, Inc., New Hyde Park, N.Y.). Beginning at 10 weeks the animals were then fed once a week for a total of 33 weeks. Beginning at 12 weeks the urine was tested weekly for the presence of glucose using Glucosuria test tape (Eli Lilly, Indianapolis, Ind.). If an animal tested 3+ or higher on the glucose urine test, a serum sample was taken and blood glucose measured using a glucose analyzer (Beckman). If the blood glucose was 220 or higher, the animals were classified as diabetic and then sacrificed.
Molecule,beta cell function [1],serum glucose concentrations [1],inflammatory immune system cells surrounding the pancreas (insulitis) [2],prevention of manifestation of symptoms (hyperglycemia) of Type 1 diabetes [3],blood glucose after feeding [4],"endocrinologic (metabolic) effects from feeding ([4]; 1 mg oral insulin, NOD mice)","period over which the glucose decrease persisted ([4]; 20 micrograms porcine insulin injected subcutaneously, fasting NOD mice) [h]","decrease in glucose level ([4]; 20 micrograms porcine insulin injected subcutaneously, fasting NOD mice (positive control))",development of diabetes ([5]; NOD mice fed 1 mg insulin orally),development of diabetes ([5]; NOD mice fed 10 micrograms insulin orally),development of diabetes ([5]; NOD mice fed 100 micrograms insulin orally),"incidence of diabetes ([5]; all doses of orally administered insulin tested (10 micrograms, 100 micrograms, 1 mg))"
Porcine insulin,preservation of beta cell function,reduction in serum glucose concentrations to near normal levels,fewer inflammatory immune system cells surrounding the pancreas,effective in preventing the manifestation of symptoms,no drop in the blood glucose,not a metabolic effect; also recorded: no endocrinologic (metabolic) effects,4,approximately 80 mg %,none of the mice went on to develop diabetes; also recorded: no diabetes developed; also recorded: None of the animals developed diabetes,diabetes developed,diabetes developed,lower incidence of diabetes; also recorded: reduced the numbers of these mice which subsequently went on to develop diabetes
B1,–,–,–,–,no drop in the blood glucose,–,–,–,–,–,–,–

# — US6703361B2, “Method of treating or preventing Type 1 diabetes by oral administration of insulin” (AutoImmune Inc., priority 1990, dated 2004)
